Laboratory results as given in patent US20230092762A1, “THERAPEUTIC DELIVERY OF LOCKED NUCLEIC ACID CONJUGATED ANTISENSE MIR-1” (THE TRUSTEES OF INDIANA UNIVERSITY, priority 2020, published 2023).

How the values were obtained:
[1] = test system: human keratinocytes; test: Measurement of mitochondrial membrane potential (JC-1 flow cytometry; TMRM/PMPI); assay type: cell-based
Protocol: Measurement of Mitochondrial Membrane Potential. Mitochondrial membrane potential changes were assessed by two different techniques, a) using the lipophilic cationic dye JC-1 (MitoProbe JC-1 Assay Kit for Flow Cytometry, Life technologies) per manufacturer's instruction by flow cytometer. Mitochondrial membrane potential was also evaluated b) using TMRM/PMPI after 48 hours of control/[…] mimic transfection. The images were captured by confocal microscope and the quantification of fluorescent intensity was measured using FV1000 software (Olympus, Tokyo, Japan).

[2] = test system: human keratinocytes; test: Respirometry assay (OCR, XF-96 Seahorse); assay type: cell-based; conditions: 20 μM, 24 h, vs vehicle control
Protocol: Respirometry Assay. The Oxygen Consumption Rate (OCR) measurements were performed using a Seahorse Bioscience XF-96 instrument. A day prior to the experiment, the sensor cartridge was hydrated overnight using the calibration buffer supplied by the manufacturer. The transfected cells were seeded in the 96 well microplate supplied by the company. On the day of the experiment, the cells were washed with the calibrant buffer twice and incubated with glucose free DMEM for 2 h at 37° C. in a CO2 free incubator. The injection ports of the sensors were filled with 20 μL of treatment or vehicle in buffer. The sensor was then placed into the XF-96 instrument and calibrated. After calibration, the calibration fluid plate was replaced with the cell plate. The measurement cycle consisted of a 2 min mix, 1 min wait, and a 2 min measurement. Four basal rate measurements were followed with injections and each injection is followed by four measurement cycles. The consumption rates were calculated from the continuous average slope of the O2 decreases using a compartmentalization model. For any one treatment, the rates from 10 wells were used. Rates for the wells were normalized for protein content. All average rates were normalized to the vehicle control basal and t-tests between control and treatment were used to assess statistical significance.

[3] = test system: BAX; test: Western blot analysis of BAX in human keratinocytes; assay type: cell-based; conditions: 20 μM, 24 h
Protocol: Western Blot Analysis. Immunoblotting was performed using HaCaT cell and wound tissue lysates. After protein extraction, the protein concentration was determined by BCA protein assay as described earlier. The samples (10-20 μg of protein/lane) were separated on a 4-12% SDS polyacrylamide gel electrophoresis and probed with rabbit polyclonal anti-notch1 […] antibody (1:1000 dilution, Abcam, Cambridge, Mass.), rabbit polyclonal anti-BAX antibody (1:1000 dilution, Abcam, Cambridge, Mass.), HRP conjugated anti-GAPDH (1:10,000 dilution). Bands were visualized by horseradish peroxidase-conjugated anti-rabbit-IgG raised in donkey and horseradish peroxidase-conjugated anti-mouse-IgG raised in sheep (Amersham Biosciences, Piscataway, N.J.) at 1:2,000 dilution and the enhanced chemiluminescence assay (Amersham Biosciences, Piscataway, N.J.).

[4] = test system: breast cancer stem cells; conditions: phase I trial; cited from earlier work

In the case of `O=C(O)CC[C@H]1CC[C@@](c2cc(F)ccc2F)(S(=O)(=O)c2ccc(Cl)cc2)CC1` [MK-0752], the “JC-1 green fluorescence (compromised ΔΨ)” value ([1]; JC-1, 20 μM, 24 h) is reported as “significant increase in JC-1 green fluorescence”, the TMRM fluorescence ([1]; TMRM and PMPI staining, 20 μM, 24 h) is reported as “significant decrease in TMRM fluorescence” and the “mitochondrial membrane potential (ΔΨ)” value ([1]; studies using TMRM and PMPI) is reported as “lowered ΔΨ”. The ATP production [2] was “significant decrease”, the basal respiration [2] was “significant decrease” and the “rate of oxygen consumption” value [2] was “decreased rate of oxygen consumption”. For the same compound, the BAX dimerization [3] was “caused BAX dimerization” and the “breast cancer stem cells” value [4] was “reduction of breast cancer stem cells”.
